Assay results as given in article PMC6148290, “Endogenous metabolites of vitamin E limit inflammation by targeting 5-lipoxygenase” (Nature Communications, 2018).

Legend:
[1] = cited from earlier work; for plasma levels in humans: ref Mangialasche et al., 2012
15-LO = 15-LO product formation in A23187/AA-activated PMNL; assay type: cell-based, human; settings: at 3 µM; mean ± s.e.m., n = 3; n.i. no inhibition
Procedure: (§1) Cells were washed and medium was exchanged. Freshly isolated PMNL (1 × 10^7) and stably transfected HEK-293 (1 × 10^6) cells were suspended in PBS pH 7.4 containing 1 mg/ml glucose and 1 mM CaCl2. […] A23187- and A23187/AA-treated PMNL and A23187/AA-treated HEK-293 (5-LO_wt), HEK-293 (5-LO_3W) and HEK-293 (5-LO_Arg101Asp) cells produced 135 ± 21, 636 ± 112, 300 ± 59, 133 ± 29, 55 ± 9 ng 5-LO products, respectively. PMNL synthesized 29 ± 6 ng 12-HETE and 97 ± 23 ng 15-HETE when challenged with A23187/AA. 5-LO products from monocytes were analyzed by UPLC-MS/MS.

5-LO [2] = target: T1, 5-LO (Homo sapiens, UniProt P09917); assay: 5-LO product formation in activated PMNL; assay type: cell-based; set-up: Freshly isolated PMNL (1 × 10^7); endogenous in cells; host or cells: human PMNL freshly isolated from leukocyte concentrates; settings: cell-based; mean ± s.e.m., n = 3; read-out: IC50, activated PMNL (5-LO)
T1 sequence (P09917 1-674): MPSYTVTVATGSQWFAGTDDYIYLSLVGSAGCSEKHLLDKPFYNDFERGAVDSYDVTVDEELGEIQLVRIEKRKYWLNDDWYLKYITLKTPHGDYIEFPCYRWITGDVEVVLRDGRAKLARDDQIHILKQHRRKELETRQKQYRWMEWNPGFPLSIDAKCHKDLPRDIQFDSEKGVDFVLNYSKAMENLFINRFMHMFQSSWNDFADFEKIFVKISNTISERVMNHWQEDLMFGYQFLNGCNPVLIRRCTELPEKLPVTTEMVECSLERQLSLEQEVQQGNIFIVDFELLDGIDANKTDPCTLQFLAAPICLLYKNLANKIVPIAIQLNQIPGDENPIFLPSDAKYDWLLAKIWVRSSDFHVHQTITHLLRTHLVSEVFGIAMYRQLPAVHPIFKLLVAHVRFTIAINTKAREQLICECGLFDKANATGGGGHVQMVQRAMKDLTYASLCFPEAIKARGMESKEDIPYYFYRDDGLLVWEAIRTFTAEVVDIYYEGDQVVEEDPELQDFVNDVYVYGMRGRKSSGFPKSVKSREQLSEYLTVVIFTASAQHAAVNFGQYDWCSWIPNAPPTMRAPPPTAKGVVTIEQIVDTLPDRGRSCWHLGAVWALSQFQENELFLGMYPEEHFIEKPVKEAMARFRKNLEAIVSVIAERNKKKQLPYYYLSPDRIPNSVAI
Excerpt: Human PMNL, monocytes, PBMC, and platelets were freshly isolated from leukocyte concentrates. The protocols for experiments with human blood and blood cells were approved by the ethical commission of the Friedrich-Schiller-University Jena. […] PMNL were recovered from the pellet after hypotonic lysis of erythrocytes. Platelets were obtained from the supernatant and washed with PBS pH 5.9/0.9% NaCl (1:1). […]

[3] = system: peripheral blood mononuclear cells; assay: Cell viability of PBMC (MTT assay); assay type: cell-based, human; settings: at 1 and 10 µM (one entry for both); 24 h; n.i. no inhibition
Procedure: The formazan product was solubilized with SDS (10% in 20 mM HCl), and absorbance was measured at 570 nm using a Multiskan Spectrum microplate reader (Thermo Fisher Scientific).

5-LO [4] = target: T1, 5-LO; assay: Activity of purified human recombinant 5-LO (cell-free); assay type: biochemical; set-up: made in house; host or cells: E. coli Bl21 (DE3); settings: cell-free; mean ± s.e.m., n = 3; read-out: IC50, human recombinant 5-LO
Procedure: E. coli Bl21 (DE3) cells were transformed with pT3–5LO plasmid to express human recombinant 5-LO, which was purified by affinity chromatography on an ATP-agarose column. In brief, E. coli was lysed in 50 mM triethanolamine/HCl pH 8.0 plus EDTA (5 mM), soybean trypsin inhibitor (60 µg/ml), phenylmethanesulphonyl fluoride (1 mM), dithiothreitol (1 mM), and lysozyme (1 mg/ml). After sonication (3 × 15 s), the homogenate was centrifuged at 10,000 × g for 15 min and the supernatant again at 40,000 × g for 70 min at 4 °C. The supernatant was applied to an ATP-agarose column (Sigma-Aldrich), and the column was washed with (i) PBS pH 7.4, 1 mM EDTA, (ii) 50 mM phosphate buffer pH 7.4, 0.5 M NaCl, 1 mM EDTA, and (iii) 50 mM phosphate buffer pH 7.4, 1 mM EDTA. 5-LO was eluted with 50 mM phosphate buffer pH 7.4, 1 mM EDTA, 20 mM ATP.
Purified 5-LO (0.5 µg) in PBS pH 7.4 containing EDTA (1 mM) and ATP (1 mM) was pre-incubated with LCMs for 10 min at 4 °C, pre-warmed for 30 s at 37 °C and 5-LO product formation was started by addition of AA (Sigma-Aldrich; 20 µM if not indicated otherwise) plus CaCl2 (2 mM). […] AA was added after incubation for 5 min on ice.

12-LO = target: T2, 12-LO (Homo sapiens, UniProt P18054); assay: 12-LO product formation in A23187/AA-activated PMNL; assay type: cell-based; settings: at 3 µM; mean ± s.e.m., n = 3; n.i. no inhibition
T2 construct: 12-HETE (12-LO product from platelets in PMNL preparations); endogenous in cells; host or cells: platelets contaminating human PMNL preparations
T2 sequence (P18054 1-663): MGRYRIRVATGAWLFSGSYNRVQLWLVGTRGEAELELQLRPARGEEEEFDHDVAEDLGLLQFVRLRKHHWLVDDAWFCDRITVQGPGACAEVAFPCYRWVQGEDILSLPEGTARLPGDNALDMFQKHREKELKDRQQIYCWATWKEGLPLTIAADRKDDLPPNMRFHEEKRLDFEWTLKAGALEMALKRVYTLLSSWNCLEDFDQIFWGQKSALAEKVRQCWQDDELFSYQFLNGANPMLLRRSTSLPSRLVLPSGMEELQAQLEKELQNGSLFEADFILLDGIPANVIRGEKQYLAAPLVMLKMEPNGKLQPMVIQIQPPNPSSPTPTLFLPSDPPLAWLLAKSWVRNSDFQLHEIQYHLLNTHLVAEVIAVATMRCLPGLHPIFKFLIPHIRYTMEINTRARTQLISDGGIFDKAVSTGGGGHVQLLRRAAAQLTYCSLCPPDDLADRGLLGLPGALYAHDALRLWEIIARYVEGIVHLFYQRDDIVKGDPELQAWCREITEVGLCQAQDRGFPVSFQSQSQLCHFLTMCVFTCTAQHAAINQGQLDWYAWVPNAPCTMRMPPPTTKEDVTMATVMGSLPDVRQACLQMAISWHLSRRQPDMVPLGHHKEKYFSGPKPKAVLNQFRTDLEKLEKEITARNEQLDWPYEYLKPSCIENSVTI
Procedure: as §1

[5] = system: zymosan-induced murine peritonitis; assay: Zymosan-induced peritonitis in mice; assay type: in vivo, mouse; settings: 10 mg/kg i.p.; 30 min post zymosan; ELISA
Procedure: Mice were killed by inhalation of CO2 after another 30 min for determination of LTC4 levels and vascular permeability and after 4 h for the analysis of LTB4 levels, lipidomic profiles and immune cell infiltration. Cell infiltration and lipid mediator profiles during resolution were studied after 18 h. Peritoneal exudates were collected and cells counted after vital trypan blue staining. LTC4, LTB4, and PGE2 were analyzed in the exudate by enzyme immunoassays (Enzo Life Sciences, Lörrach, Germany) according to manufacturer's instructions. To assess vascular permeability, Evans blue dye (40 mg/kg in saline, 0.3 ml; Sigma-Aldrich) was injected into the tail vain immediately before the induction of peritonitis. Exudates were centrifuged (3000 × g, 5 min) and the absorbance of the supernatants was measured at 610 nm using a Beckman Coulter DU730 spectrophotometer. To investigate the effect of α-T (1a) on the accumulation of α-T-13'-COOH (4a) in infiltrated leukocytes after peritonitis has been established, vehicle or α-[…].) were given 1 h before and/or 4 h post zymosan injection, and mice were killed after another 1.5 h. Leukocytes were obtained from peritoneal exudates by centrifugation (1200 × g, 10 min, 4 °C).

[6] = target: T3, human recombinant LTC4 synthase (LTC4S) (Homo sapiens, UniProt Q16873); assay: LTC4 synthase activity; assay type: biochemical; settings: 10 µM; reference inhibitor
T3 construct: expressed in transfected cells; host or cells: HEK-293 cells stably expressing LTC4S (microsomal membranes)
T3 sequence (Q16873 1-150): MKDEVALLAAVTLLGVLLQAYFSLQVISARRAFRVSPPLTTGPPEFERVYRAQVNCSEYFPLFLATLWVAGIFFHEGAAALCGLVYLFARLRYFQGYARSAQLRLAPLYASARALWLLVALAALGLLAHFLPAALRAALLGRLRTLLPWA
Procedure: To investigate the effect of LCMs on LTC4S activity, we used microsomal membranes from HEK-293 cells stably expressing LTC4S[70]. […] The conversion of LTA4 to LTC4 methyl esters was initiated by addition of LTA4 methyl ester (Cayman Chemicals; 1 µM). After 10 min at 4 °C, the reaction was terminated by ice-cold methanol (one volume), and LTC-d5 methyl ester (5 ng; Cayman Chemicals) was added as internal standard. LTC4 was extracted and analyzed by UPLC-MS/MS as described for lipid mediators. Vehicle (DMSO)-treated microsomal membranes produced 7.1 ± 0.5 nmol LTC4.

DPPH radical scavenging = settings: 50 µM; control
Procedure: Compounds were incubated with 2,2-diphenyl-1-picrylhydrazyl (DPPH, Sigma-Aldrich; […]) in ethanol for 30 min. Absorbance was measured at 520 nm using a Multiskan Spectrum Microplate Reader (Thermo Fisher Scientific)[35]. Ascorbic acid (Sigma-Aldrich; 50 µM), used as control, scavenged DPPH radicals by 82.4 ± 1.9%.

Compound	plasma levels in humans [1] [µM]	15-LO product formation/PMNL, residual activity (15-LO)	IC50 (5-LO [2]) [nM]	Cell viability/peripheral blood mononuclear cells, residual viability [3]	IC50 (5-LO [4]) [nM]	12-LO product formation/PMNL, residual activity (12-LO)	hepatic tissue concentrations ([1]; ref Nagita et al., 1997) [nmol/g]	human plasma level ([1]; ref Nagita et al., 1997) [µM]	LTC4 levels in the exudate [5]	suppression of LTC4 formation [6] [%]	DPPH radicals scavenged (DPPH radical scavenging) [%]
Cc1cc(O)cc2c1O[C@](C)(CCC[C@H](C)CCC[C@H](C)CCCC(C)C)CC2 [1d]	0.01	86.6 ± 15.8 % of control	85000 ± 5000	n.i.	310 ± 100	n.i.	–	–	–	–	–
Cc1cc(O)cc2c1O[C@](C)(CCC[C@H](C)CCC[C@H](C)CCCC(C)CO)CC2 (stereo partly drawn) [2d]	–	142.8 ± 13.9 % of control	540 ± 20	n.i.	120 ± 40	84.8 ± 7.8 % of control	–	–	–	–	–
Cc1c(C)c2c(c(C)c1O)CC[C@@](C)(CCC[C@H](C)CCC[C@H](C)CCCC(C)C)O2 [1a, α-tocopherol]	25 to 35	n.i.	808000 ± 159000	n.i.	> 1000	n.i.	70 to 530	14 to 27	significantly less effective	–	–
CC(C)c1ccc2c(c1)c(SC(C)(C)C)c(CC(C)(C)C(=O)O)n2Cc1ccc(Cl)cc1 [MK-886, reference compound]	–	–	–	–	–	–	–	–	–	95.6 ± 0.9	–
Cc1c(O)cc2c(c1C)O[C@](C)(CCC[C@H](C)CCC[C@H](C)CCCC(C)C)CC2 [1c]	–	n.i.	502000 ± 199000	n.i.	910 ± 150	n.i.	–	–	–	–	–
CC(C)=CCC/C(C)=C/CC/C(C)=C/CC[C@]1(C)CCc2cc(O)cc(C)c2O1 [1h]	–	n.i.	60000 ± 15000	n.i.	170 ± 100	87.6 ± 8.5 % of control	–	–	–	–	–
C/C(=C\CC/C(C)=C/CC/C(C)=C/CC[C@]1(C)CCc2cc(O)cc(C)c2O1)CO [2h]	–	n.i.	1260 ± 330	n.i.	150 ± 50	n.i.	–	–	–	–	–
Cc1cc(O)c(C)c2c1O[C@](C)(CCC[C@H](C)CCC[C@H](C)CCCC(C)C)CC2 [1b]	–	n.i.	57000 ± 2000	n.i.	750 ± 150	n.i.	–	–	–	–	–
O=C1O[C@H]([C@@H](O)CO)C(O)=C1O [Ascorbic acid, reference compound]	–	–	–	–	–	–	–	–	–	–	82.4 ± 1.9
